Legend:
Test in all cases: normalised response (% of control), CellTiter-Glo; higher = more viable cells (100 = DMSO, 0 = benzethonium chloride kill control)
Details in all cases: incubation time: 72 h
[1] = system: BT-474
In short: (§1)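 CellTox Green fluorescence (485/520 nm) and, after 10 min at room temperature, CellTiter-Glo luminescence were read from breast cancer cell lines incubated 72 h in 384-well plates. Cells were seeded as 20 µl suspension onto compound at 5 concentrations in 10-fold steps over a 10,000-fold range chosen per compound. Each plate was normalised to 0.1 % DMSO (100) and a positive kill control (0). Values are normalised signals, one per concentration.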

[2] = system: BT-549
In short: as §1

[3] = system: CAL-120
In short: as §1

[4] = system: CAL-148
In short: as §1

[5] = system: CAL-51
In short: as §1

[6] = system: CAL-85-1
In short: as §1

[7] = system: DU-4475
In short: as §1

[8] = system: HCC1143
In short: as §1

[9] = system: HCC1599
In short: as §1

[10] = system: HCC1937
In short: as §1

[11] = system: HDQ-P1
In short: as §1

[12] = system: Hs578T
In short: as §1

[13] = system: MCF-10A
In short: as §1

[14] = system: MDA-MB-231
In short: as §1

[15] = system: MDA-MB-436
In short: as §1

[16] = system: MDA-MB-453
In short: as §1

[17] = system: MDA-MB-468
In short: as §1

[18] = system: MFM-223
In short: as §1

[19] = system: SK-BR-3
In short: as §1

Row | Structure (SMILES) | normalised response [1] [%] | normalised response [2] [%] | normalised response [3] [%] | normalised response [4] [%] | normalised response [5] [%] | normalised response [6] [%] | normalised response [7] [%] | normalised response [8] [%] | normalised response [9] [%] | normalised response [10] [%] | normalised response [11] [%] | normalised response [12] [%] | normalised response [13] [%] | normalised response [14] [%] | normalised response [15] [%] | normalised response [16] [%] | normalised response [17] [%] | normalised response [18] [%] | normalised response [19] [%]
1 | Cc1c(C(=O)Nc2ccc(N3C[C@@H](C)O[C@@H](C)C3)nc2)cccc1-c1ccc(OC(F)(F)F)cc1 [Erismodegib] (1 nM) | 93.9 | 93.8 | 99.2 | 91.7 | 88.2 | 97.8 | 97.5 | 93.8 | 102 | 96.1 | 94.1 | 91.6 | 84.4 | 99 | 85.3 | 96.1 | 99.8 | 96.7 | 91.3
2 | Cc1c(C(=O)Nc2ccc(N3C[C@@H](C)O[C@@H](C)C3)nc2)cccc1-c1ccc(OC(F)(F)F)cc1 [Erismodegib] (10 nM) | 92.9 | 99.6 | 91.7 | 94.6 | 127 | 95.2 | 101 | 93.4 | 104 | 96.3 | 95.5 | 101 | 86 | 99.2 | 91.9 | 81.8 | 86.6 | 91.9 | 69.9
3 | CC(C)C(=O)Nc1ccc([N+](=O)[O-])c(C(F)(F)F)c1 [Flutamide] (10 nM) | 101 | 96.4 | 97.6 | 92.1 | 126 | 96.2 | 102 | 98.6 | 105 | 102 | 98.4 | 98.6 | 103 | 95.7 | 99.8 | 109 | 96 | 99.6 | 124
4 | COc1cc2c(Oc3ccc(NC(=O)C4(C(=O)Nc5ccc(F)cc5)CC4)cc3F)ccnc2cc1OCCCN1CCOCC1 [Foretinib] (1 nM) | 104 | 98.4 | 99.7 | 101 | 106 | 94.8 | 100 | 102 | 94.3 | 95 | 97.7 | 97.4 | 102 | 99 | 99.2 | 108 | 99.4 | 102 | 97.6
5 | COc1cc(Nc2ncc(F)c(Nc3ccc4c(n3)N(COP(=O)(O)O)C(=O)C(C)(C)O4)n2)cc(OC)c1OC [Fostamatinib] (0.25 nM) | 97.2 | 107 | 107 | 93.3 | 83.5 | 99.3 | 96.2 | 100 | 111 | 106 | 99.1 | 99.2 | 103 | 101 | 110 | 99.4 | 97.4 | 94.9 | 98
6 | COc1cc(Nc2ncc(F)c(Nc3ccc4c(n3)N(COP(=O)(O)O)C(=O)C(C)(C)O4)n2)cc(OC)c1OC [Fostamatinib] (2.5 nM) | 103 | 102 | 105 | 97.7 | 73.5 | 99.7 | 93.8 | 102 | 87.7 | 99.6 | 110 | 102 | 97.7 | 96.2 | 92.9 | 104 | 96.7 | 98.8 | 92.7
7 | CC(C)NC[C@@H](C(=O)N1CCN(c2ncnc3c2[C@H](C)C[C@H]3O)CC1)c1ccc(Cl)cc1 [GDC-0068] (1 nM) | 99.3 | 97.7 | 95.9 | 95.3 | 71 | 98.9 | 99.9 | 97.3 | 100 | 102 | 99.8 | 101 | 106 | 103 | 96.9 | 102 | 94.1 | 98.9 | 103
8 | CCCc1cc(C)[nH]c(=O)c1CNC(=O)c1cc(-c2ccnc(N3CCN(C)CC3)c2)cc2c1cnn2C(C)C [GSK343] (1 nM) | 94.2 | 100 | 95.5 | 84.4 | 116 | 102 | 92.7 | 87.7 | 80.2 | 93.4 | 98 | 105 | 99.5 | 92.5 | 97.3 | 99.5 | 89 | 94.7 | 91.9
9 | CCCc1cc(C)[nH]c(=O)c1CNC(=O)c1cc(-c2ccnc(N3CCN(C)CC3)c2)cc2c1cnn2C(C)C [GSK343] (10 nM) | 97.2 | 96.5 | 97 | 80.2 | 81.4 | 91.6 | 94 | 104 | 103 | 103 | 97.6 | 101 | 103 | 91.7 | 91.1 | 94.2 | 87.4 | 93.3 | 109
10 | NC(=O)NO [Hydroxyurea] (100 nM) | 99.5 | 97.7 | 97.8 | 102 | 89.7 | 99.8 | 101 | 104 | 94.1 | 96 | 97.3 | 102 | 104 | 98.5 | 96.3 | 112 | 101 | 108 | 93.5
